This is an account of results in patent publication US12421282B2, “Compositions and methods for the treatment of metabolic and liver disorders” (priority 2021, dated 2025).

Details of series [1]: species or system cynomolgus monkeys. As to conditions: cynomolgus monkey, in vivo. Here is the method: Subcutaneous (SC) dosing of the compounds in a vehicle of 0.1% bovine serum albumin in phosphate buffered saline solution was performed with male cynomolgus monkeys. […] Samples were obtained at 1, 4, 8, 12, 24, 48, 72, 96, 120, 168, 192, 240 and 336 hours after the single dose was administered.

In series [2] the target is human recombinant GLP-1 receptor (Homo sapiens, UniProt P43220). The experiment in a line: TagLite binding assay, GLP-1 receptor, without and with 2% HSA. An excerpt: (§1) Binding data for Compounds 15-25, for two human recombinant G protein coupled receptors, GLP-1 and GIP, was obtained using […]® binding assay and Epics Therapeutics cell lines. The binding assay was repeated in the presence of 2% human serum albumin (HSA). Compounds 16, 21, and 22 have an HSA ratio for the GLP-1 receptor of 7.1, 7.6, and 7.8, respectively. Compounds 15, 18, and 23 have an HSA ratio for the GIP receptor of 7.3, 4.3, and 6.4, respectively. A lower HSA ratio indicates greater binding affinity for the receptor than for albumin when compared to a compound with a greater HSA ratio.
human recombinant GLP-1 receptor, sequence (P43220 24-463): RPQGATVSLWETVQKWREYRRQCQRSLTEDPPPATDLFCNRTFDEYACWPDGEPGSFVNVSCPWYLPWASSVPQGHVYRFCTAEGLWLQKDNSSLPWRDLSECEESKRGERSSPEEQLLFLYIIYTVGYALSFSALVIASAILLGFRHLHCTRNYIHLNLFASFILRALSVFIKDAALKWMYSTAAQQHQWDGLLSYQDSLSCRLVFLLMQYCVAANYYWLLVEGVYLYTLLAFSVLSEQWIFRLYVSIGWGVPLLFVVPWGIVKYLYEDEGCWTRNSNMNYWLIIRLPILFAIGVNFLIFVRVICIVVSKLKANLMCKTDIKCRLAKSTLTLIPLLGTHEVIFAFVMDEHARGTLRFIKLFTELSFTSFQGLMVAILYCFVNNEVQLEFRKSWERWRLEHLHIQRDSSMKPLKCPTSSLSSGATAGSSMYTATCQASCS

Series [3] has as its target T1, human recombinant GIP receptor (Homo sapiens, UniProt P48546).
T1 sequence (P48546 22-466): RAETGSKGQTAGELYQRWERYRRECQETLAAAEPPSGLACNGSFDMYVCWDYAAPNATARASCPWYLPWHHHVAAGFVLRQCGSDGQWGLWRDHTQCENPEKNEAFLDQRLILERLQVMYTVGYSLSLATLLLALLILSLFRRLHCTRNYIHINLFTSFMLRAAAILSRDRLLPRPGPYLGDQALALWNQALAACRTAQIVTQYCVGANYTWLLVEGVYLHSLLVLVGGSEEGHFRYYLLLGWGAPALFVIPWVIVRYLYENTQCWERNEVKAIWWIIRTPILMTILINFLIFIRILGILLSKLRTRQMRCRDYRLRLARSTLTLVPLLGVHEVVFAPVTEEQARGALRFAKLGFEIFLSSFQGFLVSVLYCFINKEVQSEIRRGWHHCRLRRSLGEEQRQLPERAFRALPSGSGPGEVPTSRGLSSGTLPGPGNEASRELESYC
The experiment in a line: TagLite binding assay, GIP receptor, without and with 2% HSA.
Excerpt: as §1

Structures are written as SMILES. Read-outs that look alike come from different tables or passages of the source. *1 amine or outer side, *2 acyl side, *3 side chain or, on linkers, in order; H or OH if unused. Where a SMILES comes first, the peptide text is derived from it. Side-chain parts run from the residue outwards. [ ]: non-standard residue; d: D form. The star is where a group is joined. Nonadecanoyl(19-PO3H2) = O=C(CCCCCCCCCCCCCCCCCCP(=O)(O)O)*; γGlu = O=C(O)[C@H](CCC(=O)[*:2])N[*:1]; AEEA = NCCOCCOCC(=O)O; Aib = CC(C)(N)C(=O)O

Turning to `CC[C@H](C)[C@H](NC(=O)[C@H](CC(C)C)NC(=O)[C@H](Cc1c[nH]c2ccccc12)NC(=O)[C@H](CCC(N)=O)NC(=O)[C@@H](NC(=O)[C@H](Cc1ccccc1)NC(=O)[C@H](C)NC(=O)[C@H](CCCCNC(=O)COCCOCCNC(=O)COCCOCCNC(=O)CC[C@H](NC(=O)CCCCCCCCCCCCCCCCCCP(=O)(O)O)C(=O)O)NC(=O)[C@H](CCC(N)=O)NC(=O)[C@H](C)NC(=O)[C@@H](NC(=O)[C@H](CCCCN)NC(=O)[C@H](CC(=O)O)NC(=O)[C@H](CC(C)C)NC(=O)[C@H](Cc1ccccc1)NC(=O)[C@@H](NC(=O)[C@H](CO)NC(=O)[C@H](Cc1ccc(O)cc1)NC(=O)[C@H](CC(=O)O)NC(=O)[C@H](CO)NC(=O)[C@@H](NC(=O)[C@H](Cc1ccccc1)NC(=O)[C@@H](NC(=O)CNC(=O)[C@H](CCC(=O)O)NC(=O)C(C)(C)NC(=O)[C@@H](N)Cc1ccc(O)cc1)[C@@H](C)O)[C@@H](C)O)[C@@H](C)CC)C(C)C)C(C)C)C(=O)N[C@@H](C)C(=O)NCC(=O)NCC(=O)N1CCC[C@H]1C(=O)N[C@@H](CO)C(=O)N[C@@H](CO)C(=O)NCC(=O)N[C@@H](C)C(=O)N1CCC[C@H]1C(=O)N1CCC[C@H]1C(=O)N1CCC[C@H]1C(=O)N[C@@H](CO)C(N)=O` [Compound 19] (H-Y[Aib]EGTFTSDYSIFLDKVAQK([AEEA-AEEA-γGlu-Nonadecanoyl(19-PO3H2)])AFVQWLIAGGPSSGAPPPS-NH2), in series [1] (sc, 0.2 mg/kg), the AUC(0-inf) came out at 175 µg·h/mL, the AUC(0-t) stood at 159 µg·h/mL, the Cmax stood at 1240 ng/mL and the time to peak (Tmax) is 20 h. Besides, in series [1] (sc, 0.2 mg/kg), the half-life was 96.7 h and the “mean half life longer compared to tirzepatide” value is “at least 50%”. The IC50 in series [2] (2% human serum albumin, read-out: GLP-1 receptor IC50 2% HSA) came to 1340 nM. In series [2] (no HSA, read-out: GLP-1 receptor IC50 No HSA), the IC50 came to 153 nM. Also, the IC50 in series [3] (2% human serum albumin, read-out: GIP receptor IC50 2% HSA) is 4440 nM. For the same molecule, the IC50 in series [3] (no HSA, read-out: GIP receptor IC50 No HSA) was determined as 551 nM.

In the case of `CC[C@H](C)[C@H](NC(=O)[C@H](CC(C)C)NC(=O)[C@H](Cc1c[nH]c2ccccc12)NC(=O)[C@H](CCC(N)=O)NC(=O)[C@@H](NC(=O)[C@H](Cc1ccccc1)NC(=O)[C@H](C)NC(=O)[C@H](CCCCNC(=O)COCCOCCNC(=O)COCCOCCNC(=O)CC[C@H](NC(=O)CCCCCCCCCCCCCCCCCCC(=O)O)C(=O)O)NC(=O)[C@H](CCC(N)=O)NC(=O)[C@H](C)NC(=O)[C@@H](NC(=O)[C@H](CCCCN)NC(=O)[C@H](CC(=O)O)NC(=O)[C@H](CC(C)C)NC(=O)C(C)(C)NC(=O)[C@@H](NC(=O)[C@H](CO)NC(=O)[C@H](Cc1ccc(O)cc1)NC(=O)[C@H](CC(=O)O)NC(=O)[C@H](CO)NC(=O)[C@@H](NC(=O)[C@H](Cc1ccccc1)NC(=O)[C@@H](NC(=O)CNC(=O)[C@H](CCC(=O)O)NC(=O)C(C)(C)NC(=O)[C@@H](N)Cc1ccc(O)cc1)[C@@H](C)O)[C@@H](C)O)[C@@H](C)CC)[C@@H](C)CC)C(C)C)C(=O)N[C@@H](C)C(=O)NCC(=O)NCC(=O)N1CCC[C@H]1C(=O)N[C@@H](CO)C(=O)N[C@@H](CO)C(=O)NCC(=O)N[C@@H](C)C(=O)N1CCC[C@H]1C(=O)N1CCC[C@H]1C(=O)N1CCC[C@H]1C(=O)N[C@@H](CO)C(N)=O` [TRZ, Tirzepatide, reference compound], in series [1] (sc, 0.2 mg/kg), the AUC(0-inf) came out at 242 µg·h/mL, the AUC(0-t) was found to be 237 µg·h/mL, the Cmax turned out to be 2250 ng/mL and the time to peak (Tmax) came out at 40 h. The molecule also had a half-life in series [1] (sc, 0.2 mg/kg) of 57.1 h.

With `CC[C@H](C)[C@H](NC(=O)[C@H](CC(C)C)NC(=O)[C@H](Cc1c[nH]c2ccccc12)NC(=O)[C@H](CC(N)=O)NC(=O)[C@@H](NC(=O)[C@H](Cc1ccccc1)NC(=O)[C@H](C)NC(=O)[C@H](CCC(N)=O)NC(=O)[C@H](CCCCNC(=O)COCCOCCNC(=O)COCCOCCNC(=O)CC[C@H](NC(=O)CCCCCCCCCCCCCCCCCCP(=O)(O)O)C(=O)O)NC(=O)[C@H](C)NC(=O)[C@@H](NC(=O)[C@H](CCCCN)NC(=O)[C@H](CC(=O)O)NC(=O)[C@H](CC(C)C)NC(=O)C(C)(C)NC(=O)[C@@H](NC(=O)[C@H](CO)NC(=O)[C@H](Cc1ccc(O)cc1)NC(=O)[C@H](CC(=O)O)NC(=O)[C@H](CO)NC(=O)[C@@H](NC(=O)[C@H](Cc1ccccc1)NC(=O)[C@@H](NC(=O)CNC(=O)[C@H](CCC(=O)O)NC(=O)C(C)(C)NC(=O)[C@@H](N)Cc1ccc(O)cc1)[C@@H](C)O)[C@@H](C)O)[C@@H](C)CC)[C@@H](C)CC)C(C)C)C(=O)N[C@@H](C)C(=O)NCC(=O)NCC(=O)N1CCC[C@H]1C(=O)N[C@@H](CO)C(=O)N[C@@H](CO)C(=O)NCC(=O)N[C@@H](C)C(=O)N1CCC[C@H]1C(=O)N1CCC[C@H]1C(=O)N1CCC[C@H]1C(=O)N[C@@H](CO)C(N)=O` [Compound 22] (H-Y[Aib]EGTFTSDYSI[Aib]LDKIAK([AEEA-AEEA-γGlu-Nonadecanoyl(19-PO3H2)])QAFVNWLIAGGPSSGAPPPS-NH2), in series [1] (sc, 0.2 mg/kg), the AUC(0-inf) was 510 µg·h/mL, the area under the curve AUC(0-t) came to 417 µg·h/mL, the Cmax was 2380 ng/mL and the Tmax is 33.3 h. Moreover, in series [1] (sc, 0.2 mg/kg), the half-life is 137 h, the “mean half life as compared to tirzepatide (in words)” value is reported as “more than twice an long as compared to tirzepatide” and the “mean half life longer compared to tirzepatide” value was “at least 50%”.

For `CC[C@H](C)[C@H](NC(=O)[C@H](CC(C)C)NC(=O)[C@H](Cc1c[nH]c2ccccc12)NC(=O)[C@H](CCC(N)=O)NC(=O)[C@@H](NC(=O)[C@H](Cc1ccccc1)NC(=O)[C@H](C)NC(=O)[C@H](CCCCNC(=O)COCCOCCNC(=O)COCCOCCNC(=O)CC[C@H](NC(=O)CCCCCCCCCCCCCCCCCCP(=O)(O)O)C(=O)O)NC(=O)[C@H](CCC(N)=O)NC(=O)[C@H](C)NC(=O)[C@@H](NC(=O)[C@H](CCCCN)NC(=O)[C@H](CC(=O)O)NC(=O)[C@H](CC(C)C)NC(=O)C(C)(C)NC(=O)[C@@H](NC(=O)[C@H](CO)NC(=O)[C@H](Cc1ccc(O)cc1)NC(=O)[C@H](CC(=O)O)NC(=O)[C@H](CO)NC(=O)[C@@H](NC(=O)[C@H](Cc1ccccc1)NC(=O)[C@@H](NC(=O)CNC(=O)[C@H](CCC(=O)O)NC(=O)C(C)(C)NC(=O)[C@@H](N)Cc1ccc(O)cc1)[C@@H](C)O)[C@@H](C)O)[C@@H](C)CC)C(C)C)C(C)C)C(=O)N[C@@H](CCCNC(=N)N)C(=O)NCC(=O)NCC(=O)N1CCC[C@H]1C(=O)N[C@@H](CO)C(=O)N[C@@H](CO)C(=O)NCC(=O)N[C@@H](C)C(=O)N1CCC[C@H]1C(=O)N1CCC[C@H]1C(=O)N1CCC[C@H]1C(=O)N[C@@H](CO)C(N)=O` [Compound 25] (H-Y[Aib]EGTFTSDYSI[Aib]LDKVAQK([AEEA-AEEA-γGlu-Nonadecanoyl(19-PO3H2)])AFVQWLIRGGPSSGAPPPS-NH2), in series [1], the AUC(0-inf) worked out at 287 µg·h/mL, the AUC(0-t) was found to be 272 µg·h/mL, the concentration peaked (Cmax) at 1570 ng/mL and the Tmax came out at 24 h. For the same molecule, in series [1], the half-life was 117 h.

In the case of `CC[C@H](C)[C@H](NC(=O)[C@H](CC(C)C)NC(=O)[C@H](Cc1c[nH]c2ccccc12)NC(=O)[C@H](CCC(N)=O)NC(=O)[C@@H](NC(=O)[C@H](Cc1ccccc1)NC(=O)[C@H](C)NC(=O)[C@H](CCCCNC(=O)COCCOCCNC(=O)COCCOCCNC(=O)CC[C@H](NC(=O)CCCCCCCCCCCCCCCCCCP(=O)(O)O)C(=O)O)NC(=O)[C@H](CCC(N)=O)NC(=O)[C@H](C)NC(=O)[C@@H](NC(=O)[C@H](CCCNC(=N)N)NC(=O)[C@H](CC(=O)O)NC(=O)[C@H](CC(C)C)NC(=O)C(C)(C)NC(=O)[C@@H](NC(=O)[C@H](CO)NC(=O)[C@H](Cc1ccc(O)cc1)NC(=O)[C@H](CC(=O)O)NC(=O)[C@H](CO)NC(=O)[C@@H](NC(=O)[C@H](Cc1ccccc1)NC(=O)[C@@H](NC(=O)CNC(=O)[C@H](CCC(=O)O)NC(=O)C(C)(C)NC(=O)[C@@H](N)Cc1ccc(O)cc1)[C@@H](C)O)[C@@H](C)O)[C@@H](C)CC)[C@@H](C)CC)C(C)C)C(=O)N[C@@H](C)C(=O)NCC(=O)NCC(=O)N1CCC[C@H]1C(=O)N[C@@H](CO)C(=O)N[C@@H](CO)C(=O)NCC(=O)N[C@@H](C)C(=O)N1CCC[C@H]1C(=O)N1CCC[C@H]1C(=O)N1CCC[C@H]1C(=O)N[C@@H](CO)C(N)=O` [Compound 16] (H-Y[Aib]EGTFTSDYSI[Aib]LDRIAQK([AEEA-AEEA-γGlu-Nonadecanoyl(19-PO3H2)])AFVQWLIAGGPSSGAPPPS-NH2), in series [1] (sc, 0.2 mg/kg), the AUC(0-inf) amounted to 144 µg·h/mL, the AUC(0-t) worked out at 138 µg·h/mL, the concentration peaked (Cmax) at 1570 ng/mL and the Tmax came to 9.33 h. In addition, the half-life in series [1] (sc, 0.2 mg/kg) was 70.1 h.

In general, AUC(0-inf) refers to the area under the concentration-time curve extrapolated to infinity. Read a high AUC(0-inf) as more exposure. The AUC(0-t) is the area under the concentration-time curve up to a stated or last time point. High values mean high exposure, low ones low exposure. Broadly, the Cmax is the highest concentration seen after dosing. By Tmax is commonly meant the time from dosing to the highest level. The term half-life denotes the time needed for the level to fall by half in the phase considered. Usually IC50 stands for the midpoint of a concentration-inhibition curve.
